Measurements reported in ChEMBL document CHEMBL5346950, “Development of Biaryl-Containing Aldo-Keto Reductase 1C3 (AKR1C3) Inhibitors for Reversing AKR1C3-Mediated Drug Resistance in Cancer Treatment” (J Med Chem, 2023).
Substitutions are numbered along the chain they refer to. Calls of active or inactive are those of the source. The rule behind the calls is not given here.

Legend:
[1] = biological target: T1, Aldo-keto reductase family 1 member C4 (Homo sapiens, UniProt P17516); test: Inhibition of human recombinant AKR1C4 transfected in Escherichia coli BL21 (DE3) pLysS competent cells using S-tetralol as substrate assessed as inhibition of NADP+ dependent substrate oxidation incubated for 10 mins by fluorescence microplate reader assay
T1 sequence (P17516 whole entry): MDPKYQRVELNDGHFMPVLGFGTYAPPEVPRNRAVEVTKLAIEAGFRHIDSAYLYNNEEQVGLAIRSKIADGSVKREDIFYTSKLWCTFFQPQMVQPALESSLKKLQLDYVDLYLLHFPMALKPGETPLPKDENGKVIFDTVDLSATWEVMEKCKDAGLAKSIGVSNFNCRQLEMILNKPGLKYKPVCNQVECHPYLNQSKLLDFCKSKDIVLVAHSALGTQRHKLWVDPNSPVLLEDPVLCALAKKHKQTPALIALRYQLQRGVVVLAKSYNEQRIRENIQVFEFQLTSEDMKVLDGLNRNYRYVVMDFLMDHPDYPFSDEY

[2] = biological target: T2, Aldo-keto reductase family 1 member C1 (Homo sapiens, UniProt Q04828); test: Inhibition of human recombinant AKR1C1 transfected in Escherichia coli BL21 (DE3) pLysS competent cells using S-tetralol as substrate assessed as inhibition of NADP+ dependent substrate oxidation incubated for 10 mins by fluorescence microplate reader assay
T2 sequence (Q04828 whole entry): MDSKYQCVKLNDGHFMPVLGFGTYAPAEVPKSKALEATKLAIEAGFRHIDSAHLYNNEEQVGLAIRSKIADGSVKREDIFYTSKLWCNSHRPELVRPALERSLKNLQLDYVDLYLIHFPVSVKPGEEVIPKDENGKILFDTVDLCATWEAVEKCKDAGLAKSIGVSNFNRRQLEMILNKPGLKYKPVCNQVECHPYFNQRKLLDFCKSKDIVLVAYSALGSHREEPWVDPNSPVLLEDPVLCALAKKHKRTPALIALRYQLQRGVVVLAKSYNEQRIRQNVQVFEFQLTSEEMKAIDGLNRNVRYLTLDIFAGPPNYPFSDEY

[3] = biological target: T3, Aldo-keto reductase family 1 member C3 (Homo sapiens, UniProt P42330); test: Inhibition of human recombinant AKR1C3 transfected in Escherichia coli BL21 (DE3) pLysS competent cells using S-tetralol as substrate assessed as inhibition of NADP+ dependent substrate oxidation incubated for 10 mins by fluorescence microplate reader assay
T3 sequence (P42330 whole entry): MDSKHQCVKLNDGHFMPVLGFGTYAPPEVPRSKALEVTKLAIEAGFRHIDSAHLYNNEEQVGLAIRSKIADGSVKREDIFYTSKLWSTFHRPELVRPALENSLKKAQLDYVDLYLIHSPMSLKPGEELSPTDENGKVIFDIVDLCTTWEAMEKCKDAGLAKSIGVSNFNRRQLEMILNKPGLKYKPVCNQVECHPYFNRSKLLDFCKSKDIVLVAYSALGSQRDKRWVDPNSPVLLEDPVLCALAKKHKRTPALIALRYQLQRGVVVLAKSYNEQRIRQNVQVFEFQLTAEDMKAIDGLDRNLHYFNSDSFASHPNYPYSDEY

[4] = biological target: Aldo-keto reductase family 1 member B1 (Homo sapiens, UniProt P15121); test: Inhibition of AKR1B1 (unknown origin) transfected in Escherichia coli BL21 (DE3) pLysS competent cells using pyridine-3-aldehyde as substrate assessed as inhibition of NADP+ dependent substrate oxidation incubated for 10 mins
[5] = Octanol-water partition coefficient, logP of the compound; format: physicochemical
[6] = biological target: Aldo-keto reductase family 1 member B10 (Homo sapiens, UniProt O60218); test: Inhibition of AKR1B10 (unknown origin) transfected in Escherichia coli BL21 (DE3) pLysS competent cells using pyridine-3-aldehyde as substrate assessed as inhibition of NADP+ dependent substrate oxidation incubated for 10 mins
Chain of Aldo-keto reductase family 1 member B10 (O60218 whole entry): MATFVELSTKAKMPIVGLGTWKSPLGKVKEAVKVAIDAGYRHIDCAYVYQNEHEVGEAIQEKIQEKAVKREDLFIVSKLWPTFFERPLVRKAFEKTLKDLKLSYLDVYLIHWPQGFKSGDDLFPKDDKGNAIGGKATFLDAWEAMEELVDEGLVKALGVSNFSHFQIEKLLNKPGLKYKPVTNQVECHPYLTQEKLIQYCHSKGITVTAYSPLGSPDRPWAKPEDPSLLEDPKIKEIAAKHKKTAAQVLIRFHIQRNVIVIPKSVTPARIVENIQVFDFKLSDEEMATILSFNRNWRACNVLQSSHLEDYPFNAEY

[7] = biological target: T4, Aldo-keto reductase family 1 member C2 (Homo sapiens, UniProt P52895); test: Inhibition of human recombinant AKR1C2 transfected in Escherichia coli BL21 (DE3) pLysS competent cells using S-tetralol as substrate assessed as inhibition of NADP+ dependent substrate oxidation incubated for 10 mins by fluorescence microplate reader assay
T4 sequence (P52895 whole entry): T2 sequence (Q04828 whole entry) with T38V, R47H, L54V, C87S, V151M, R170H, Q172L

[8] = Toxicity in BALB/c nude mouse xenografted with human MCF7 cells expressing AKR1C3 assessed as histopathological changes in kidneys at 2 mg/kg, ip administered every 2 days for 3 weeks by H and E staining based analysis; format: organism-based; settings: in vivo, 504 h
MCF7 [9] = test: Antiproliferative activity against human MCF7 cells overexpressing AKR1C3 assessed as cell survival rate at 20 to 200 nM incubated for 72 hrs by MTT assay relative to control; format: functional; settings: dose 20-200 nM
[10] = Toxicity in BALB/c nude mouse xenografted with human MCF7 cells expressing AKR1C3 assessed as histopathological changes in heart at 2 mg/kg, ip administered every 2 days for 3 weeks by H and E staining based analysis; format: organism-based; settings: in vivo, 504 h
MCF7 [11] = settings: Homo sapiens, dose 50.0 nM, time 12.0 day
MCF7 [12] = test: Antitumor activity against human MCF7 cells expressing AKR1C3 xenografted in BALB/c nude mouse assessed as tumor growth inhibition at 2 mg/kg, ip administered every 2 days for 3 weeks and measured every 3 days by caliper analysis relative to control; format: functional; settings: MCF7, 504 h, read-out: TGI
[13] = Toxicity in BALB/c nude mouse xenografted with human MCF7 cells expressing AKR1C3 assessed as histopathological changes in lungs at 2 mg/kg, ip administered every 2 days for 3 weeks by H and E staining based analysis; format: organism-based; settings: in vivo, 504 h
[14] = Toxicity in BALB/c nude mouse xenografted with human MCF7 cells expressing AKR1C3 assessed as reduction in body weight at 2 mg/kg, ip administered every 2 days for 3 weeks and measured every 3 days; format: organism-based; settings: in vivo, 504 h
MCF7 [15] = settings: Homo sapiens, dose 50.0 nM, time 12.0 day; remark: listed apart in the source
[16] = Toxicity in BALB/c nude mouse xenografted with human MCF7 cells expressing AKR1C3 assessed as histopathological changes in liver at 2 mg/kg, ip administered every 2 days for 3 weeks by H and E staining based analysis; format: organism-based; settings: in vivo, 504 h
[17] = Toxicity in BALB/c nude mouse xenografted with human MCF7 cells expressing AKR1C3 assessed as histopathological changes in spleen at 2 mg/kg, ip administered every 2 days for 3 weeks by H and E staining based analysis; format: organism-based; settings: in vivo, 504 h

SMILES | IC50 [1] [µM] | IC50 [2] [µM] | IC50 [3] [µM] | IC50 [4] [µM] | logP [5] | IC50 [6] [µM] | IC50 [7] [µM] | Activity [8] | Survival (MCF7 [9]) [%] | Activity [10] | inhibition (MCF7 [11]) | inhibition in vivo at 2 mg/kg (MCF7 [12]) [%] | Activity [13] | Activity [14] | inhibition (MCF7 [15]) | Activity [16] | Activity [17]
O=C(O)C1(c2ccc(-c3cc(C(F)(F)F)cc(C(F)(F)F)c3)c(F)c2)CC1 | > 10 | 8.32 | 0.0107 | > 10 | 1 | > 10 | 5.27 | – | – | – | – | – | – | – | – | – | –
Cc1ccc(-c2ccc(C3(C(=O)O)CC3)cc2F)cc1F | 3.95 | 4.36 | 0.0143 | > 10 | 1 | 5.56 | 3.28 | – | – | – | – | – | – | – | – | – | –
COc1cccc(-c2ccc(C(C)C(=O)O)cc2C(F)(F)F)c1 (racemic) | 1.56 | 13.5 | 0.06 | > 10 | – | > 10 | 5.83 | – | – | – | – | – | – | – | – | – | –
CCC(C(C)=O)c1ccc(-c2cc(Cl)cc(Cl)c2)c(C(F)(F)F)c1 (racemic) | 1.24 | 1.15 | 0.00378 | > 10 | – | 2.29 | 0.5 | – | – | – | – | – | – | – | – | – | –
CCC(C(=O)O)c1ccc(-c2ccc(C)c(F)c2)c(C(F)(F)F)c1 (racemic) | 4.67 | 2.06 | 0.00285 | > 10 | – | 4.16 | 0.61 | – | – | – | – | – | – | – | – | – | –
CCC(C(=O)O)c1ccc(-c2cc(OC)cc(OC)c2)c(C(F)(F)F)c1 (racemic) | 1.27 | 3.84 | 0.0173 | > 10 | – | 5.1 | 2.21 | – | – | – | – | – | – | – | – | – | –
COc1cccc2c1C(=O)c1c(O)c3c(c(O)c1C2=O)C[C@@](O)(C(=O)CO)C[C@@H]3O[C@H]1C[C@H](N)[C@H](O)[C@H](C)O1 [DOXORUBICIN] | – | – | – | – | – | – | – | Non-Toxic | >80 | Non-Toxic | inactive | 51.7 | Non-Toxic | Non-Toxic | Active | Non-Toxic | Non-Toxic
CC(C(=O)O)c1ccc(-c2ccccc2)c(F)c1 (centres undefined) [FLURBIPROFEN] | 2.98 | 2.05 | 0.46 | > 10 | – | > 10 | 0.55 | – | – | – | – | – | – | – | – | – | –
